Test: phase 1/2 study in relapsed/refractory ITP (NCT03395210), safety
Conditions: for Time From Initial Treatment to Rescue Use: single patient
Text: The Safety Population was used for all safety analyses.
Pre-existing conditions that worsened during a study were reported as AEs.
Safety was graded per NCI CTCAE, version 4.0.

[1] = treatment-related TEAE, any grade
[2] = treatment-related TEAE, grade 1

For `CC(C)(C=C(C#N)C(=O)N1CCC[C@@H](n2nc(-c3ccc(Oc4ccccc4)cc3F)c3c(N)ncnc32)C1)N1CCN(C2COC2)CC1` (mixture of isomers) [rilzabrutinib, (R)-2-[3-[4-amino-3-(2-fluoro-4-phenoxy-phenyl)pyrazolo[3,4-d]pyrimidin-1-yl]piperidine-1-carbonyl]-4-methyl-4-[4-(oxetan-3-yl)piperazin-1-yl]pent-2-enenitrile], the “Rescue medication received but discontinued due to unrelated adverse events” value (in vivo) was “Two”, the “TEAE leading to discontinuation: grade 3 GI hemorrhage” value (in vivo) was 1 patient and the “TEAE leading to discontinuation: grade 4 Evans syndrome” value (in vivo) was 1 patient. The “TEAE leading to discontinuation: grade 4 thrombocytopenia” value (in vivo) was 1 patient, the “TEAE resulting in study drug discontinuation” value (in vivo) was “Seven” and the “TEAE resulting in study drug discontinuation: administrative and site conditions” value (in vivo) was 1 (2%) patients (%). For the same molecule, the “TEAE resulting in study drug discontinuation: gastrointestinal (GI) disorders” value (in vivo) was 4 (70%) patients (%), the “TEAE resulting in study drug discontinuation: lymphatic system disorders” value (in vivo) was 2 (40%) patients (%) and the “TEAEs leading to study drug discontinuation reported as serious adverse events” value (in vivo) was “Four”. The “Use of rescue medication as cause of study discontinuation” value (in vivo) was “four”, the “serious adverse events leading to discontinuation related to treatment” value (in vivo) was “none were related to rilzabrutinib treatment” and the “toxicity across all doses” value (in vivo) was “only low-grade toxicity across all doses”. The “treatment-related discontinuation: grade 1 fatigue” value (in vivo) was 1 patient, the “treatment-related discontinuation: grade 2 GI disorders” value (in vivo) was 2 patients and the “infections, thrombotic events, cardiac arrhythmias, liver toxicity, or increased bleeding” value (limited follow up time) was “no evidence of infections, thrombotic events, cardiac arrhythmias, liver toxicity, or increased bleeding”. For the same molecule, the “adverse events typically associated with BTK inhibitors” value (neutropenia, treatment-related infections, bleeding, thrombotic events, fungal infections, atrial fibrillation) was “no signs or symptoms of adverse events typically associated with BTK inhibitors”, the “related treatment-emergent serious adverse events” value (open-label Phase 1/2 study in ITP) was “no related treatment-emergent serious adverse events” and the “Time From Initial Treatment to Rescue Use” value (shortened to “Time From Initial Treatment”) (200 mg qd, baseline 24 × 10^9/L) was “Day 36”. The “Time From Initial Treatment” value (300 mg bid, baseline 3 × 10^9/L) was “Day 29”, the “Time From Initial Treatment” value (400 mg bid, baseline 18 × 10^9/L) was “Day 11” and the Abdominal discomfort [1] was 1 (2) number of patients (percent). The Abdominal distension [1] was 4 (7) number of patients (percent), the Abdominal pain [1] was 2 (3) number of patients (percent) and the Abnormal dreams [1] was 1 (2) number of patients (percent). The Akathisia [1] was 1 (2) number of patients (percent), the Alopecia [1] was “— (represents zero events)” and the Anemia [1] was “— (represents zero events)”. For the same molecule, the “Any TEAE” value [1] was 31 (52) number of patients (percent), the Arthralgia [1] was “— (represents zero events)” and the Arthropod bite [1] was “— (represents zero events)”. For the same molecule, the Back pain [1] was 1 (2) number of patients (percent), the Conjunctival hemorrhage [1] was “— (represents zero events)” and the Contusion [1] was 1 (2) number of patients (percent). The Costochondritis [1] was “— (represents zero events)”, the Cough [1] was “— (represents zero events)” and the Decreased appetite [1] was 1 (2) number of patients (percent). For the same molecule, the Defecation urgency [1] was 1 (2) number of patients (percent), the Diarrhea [1] was 19 (32) number of patients (percent) and the Dizziness [1] was “— (represents zero events)”. For the same molecule, the Dyspepsia [1] was 1 (2) number of patients (percent), the Dyspnea [1] was “— (represents zero events)” and the Dyspnea exertional [1] was “— (represents zero events)”. The Edema [1] was 1 (2) number of patients (percent), the Epigastric discomfort [1] was 1 (2) number of patients (percent) and the Epistaxis [1] was “— (represents zero events)”. The Erysipelas [1] was 1 (2) number of patients (percent), the Fatigue [1] was 6 (10) number of patients (percent) and the Frequent bowel movements [1] was 1 (2) number of patients (percent). For the same molecule, the Headache [1] was 2 (3) number of patients (percent), the Heavy menstrual bleeding [1] was “— (represents zero events)” and the Hypoesthesia [1] was 1 (2) number of patients (percent). The Hypophosphatemia [1] was “— (represents zero events)”, the I lot flush [1] was 1 (2) number of patients (percent) and the Ilypokalemia [1] was 1 (2) number of patients (percent). The “Increased white blood cell count” value [1] was 1 (2) number of patients (percent), the Maculo-papular rash [1] was 1 (2) number of patients (percent) and the Malaise [1] was 1 (2) number of patients (percent). For the same molecule, the Micturition urgency [1] was 1 (2) number of patients (percent), the Muscle spasms [1] was 1 (2) number of patients (percent) and the Myalgia [1] was 1 (2) number of patients (percent). The Nasal congestion [1] was “— (represents zero events)”, the Nasopharyngitis [1] was “— (represents zero events)” and the Nausea [1] was 18 (30) number of patients (percent). For the same molecule, the Peripheral swelling [1] was “— (represents zero events)”, the Petechiae [1] was “— (represents zero events)” and the Pruritus [1] was 2 (3) number of patients (percent). For the same molecule, the Purpura [1] was “— (represents zero events)”, the Rash [1] was 1 (2) number of patients (percent) and the Thrombocytopena [1] was “— (represents zero events)”. The Upper abdominal pain [1] was 2 (3) number of patients (percent), the “Upper respiratory tract infection” value [1] was “— (represents zero events)” and the Urinary tract infection [1] was “— (represents zero events)”. The Vomiting [1] was 3 (5) number of patients (percent), the diarrhea [1] was 32% and the fatigue [1] was 10%. The nausea [1] was 30%, the Abdominal discomfort [2] was 1 (2) number of patients (percent) and the Abdominal distension [2] was 4 (7) number of patients (percent). The Abdominal pain [2] was “— (represents zero events)”, the Abnormal dreams [2] was 1 (2) number of patients (percent) and the Akathisia [2] was 1 (2) number of patients (percent). The Alopecia [2] was “— (represents zero events)”, the Anemia [2] was “— (represents zero events)” and the “Any TEAE” value [2] was 27 (45) number of patients (percent). The Arthralgia [2] was “— (represents zero events)”, the Arthropod bite [2] was “— (represents zero events)” and the Back pain [2] was “— (represents zero events)”. The Conjunctival hemorrhage [2] was “— (represents zero events)”, the Contusion [2] was 1 (2) number of patients (percent) and the Costochondritis [2] was “— (represents zero events)”. For the same molecule, the Cough [2] was “— (represents zero events)”, the Decreased appetite [2] was 1 (2) number of patients (percent) and the Defecation urgency [2] was “— (represents zero events)”. For the same molecule, the Diarrhea [2] was 16 (27) number of patients (percent), the Dizziness [2] was “— (represents zero events)” and the Dyspepsia [2] was 1 (2) number of patients (percent). The Dyspnea [2] was “— (represents zero events)”, the Dyspnea exertional [2] was “— (represents zero events)” and the Edema [2] was 1 (2) number of patients (percent). The Epigastric discomfort [2] was “— (represents zero events)”, the Epistaxis [2] was “— (represents zero events)” and the Erysipelas [2] was “— (represents zero events)”. The Fatigue [2] was 5 (8) number of patients (percent), the Frequent bowel movements [2] was “— (represents zero events)” and the Headache [2] was 2 (3) number of patients (percent). The Heavy menstrual bleeding [2] was “— (represents zero events)”, the Hypoesthesia [2] was “— (represents zero events)” and the Hypophosphatemia [2] was “— (represents zero events)”. For the same molecule, the I lot flush [2] was “— (represents zero events)”, the Ilypokalemia [2] was 1 (2) number of patients (percent) and the “Increased white blood cell count” value [2] was “— (represents zero events)”. The Maculo-papular rash [2] was 1 (2) number of patients (percent), the Malaise [2] was 1 (2) number of patients (percent) and the Micturition urgency [2] was 1 (2) number of patients (percent). The Muscle spasms [2] was 1 (2) number of patients (percent), the Myalgia [2] was 1 (2) number of patients (percent) and the Nasal congestion [2] was “— (represents zero events)”. For the same molecule, the Nasopharyngitis [2] was “— (represents zero events)”.
